Assay results from patent publication US7846973B2, “Chemical process and new crystalline form” (Theravance, Inc., priority 2004, dated 2010).
Where a name gives a salt, the structure may show the parent alone.

Test: Relative thermodynamic stability of crystalline forms of compound (Ia) monohydrochloride
Type: physicochemical
Settings: Form 2 versus Form 1 (form of WO 2004/106279)
Excerpt: Such methods can be used to provide seeds of Form 2 material.

Structure (SMILES): O=CNc1cc([C@@H](O)CNCCc2ccc(NC[C@H](O)c3ccccc3)cc2)ccc1O [Form 2, N-{2-[4-((R)-2-hydroxy-2-phenylethylamino)phenyl]ethyl}-(R)-2-hydroxy-2-(3-formamido-4-hydroxyphenyl)ethylamine monohydrochloride]
- thermodynamic stability of Form 2 crystals compared with Form 1 crystals: more thermodynamically stable
